Results on three molecules are retold here after PubChem BioAssay (NCI).

Common to all, as to assay: DTP human tumour cell line panel, 48 h
Experiment [1] has as its system CCRF-CEM leukemia.
Experiment [2] has as its system IGROV1 ovarian.
Experiment [3] has as its system ACHN renal.
In experiment [4] the test system is SK-OV-3 ovarian.
Experiment [5] concerns UO-31 renal.
The test system of experiment [6] is OVCAR-4 ovarian.
For experiment [7], the system named is U251 CNS.
Experiment [8] has as its system BT-549 breast.
Experiment [9] deals with SNB-19 CNS.
Experiment [10] has as its system UACC-62 melanoma.

“And” between values parts separate entries of the source, which are not always exact repeats. Equal values may be shown once.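 Compound exposure: 48 hours, 5 concentrations, 96-well plates. GI50 = concentration required for 50% inhibition of growth. TGI is the concentration that stops growth completely.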

The term GI50 denotes the concentration giving 50% growth inhibition. One may read the TGI as the concentration at which net growth stops. For `COc1cc(/C=C/C(=O)c2cccc(-n3cc(-c4ccccc4)[nH]c3=O)c2)ccc1O`, the GI50 in [1] was 1.76 µM; in experiment [2] it was 2.22 µM; in experiment [3], 3.46 µM; in experiment [4], 4.02 µM; in [5] it was 2.01 µM; in experiment [6], 3.3 µM. For the same molecule, the GI50 in experiment [7] was 2.5 µM; in experiment [8], 2.91 µM; in experiment [9] it was 3.07 µM; in experiment [10] it was 2.33 µM. Besides, the TGI in experiment [1] is 5.33 µM; in experiment [2] it was 7.28 µM; in experiment [3] it was 16.3 µM; in experiment [4] it was 35.5 µM; in experiment [5], 8.73 µM; in [6] it was greater than 23 µM. In addition, the total growth inhibition concentration (TGI) in experiment [7] is 7.9 µM; in [8], 14.7 µM; in experiment [9], 11 µM; in experiment [10], 7.74 µM.

Consider `CCOC(=O)c1ccc(N[C@@H]2c3cc4c(cc3C(c3cc(OC)c(O)c(OC)c3)[C@H]3C(=O)OCC32)OCO4)cc1` (stereo partly drawn), for which the GI50 in experiment [1] is 0.116 µM; in experiment [2], 0.962 µM; in experiment [3], 0.161 µM; in [4], 0.37 µM; in [5] it was 0.394 µM; in experiment [7] it was 0.203 µM. Also, the GI50 in experiment [9] is 0.261 µM; in [10] it was 0.382 µM. For the same molecule, the concentration for total growth inhibition (TGI) in [1] was 0.925 µM and 1.81 µM; in [2], 10 µM; in experiment [3], 0.75 µM and 1.44 µM; in experiment [4] it was 5.16 µM; in experiment [5], 0.982 µM and 3.4 µM; in experiment [6], 12.6 µM. For the same molecule, the TGI in experiment [7] stood at 3.27 µM; in [8], 4.58 µM; in experiment [9] it was 22.2 µM; in experiment [10], 4.08 µM.

`Nc1ncnc2c1ncn2C1OC(F)(COS(N)(=O)=O)C(O)C1O` (stereo not drawn): the GI50 in [1], in [2], in experiment [3], in [4], in experiment [5] and in experiment [6] was greater than 100 µM in each case. Also, the GI50 in experiment [7], in experiment [8], in experiment [9] and in experiment [10] was greater than 100 µM each time. The TGI in experiment [1], in experiment [2], in [3], in experiment [4], in experiment [5] and in [6] was greater than 100 µM each time. The TGI in [7], in experiment [8], in [9] and in experiment [10] was greater than 100 µM each time.
